pIC50: −log10 of the molar value.

The test deals with T1, RNR (RNR1:RNR2 1:1) (Homo sapiens, UniProt P23921).
T1 sequence (P23921 1-792): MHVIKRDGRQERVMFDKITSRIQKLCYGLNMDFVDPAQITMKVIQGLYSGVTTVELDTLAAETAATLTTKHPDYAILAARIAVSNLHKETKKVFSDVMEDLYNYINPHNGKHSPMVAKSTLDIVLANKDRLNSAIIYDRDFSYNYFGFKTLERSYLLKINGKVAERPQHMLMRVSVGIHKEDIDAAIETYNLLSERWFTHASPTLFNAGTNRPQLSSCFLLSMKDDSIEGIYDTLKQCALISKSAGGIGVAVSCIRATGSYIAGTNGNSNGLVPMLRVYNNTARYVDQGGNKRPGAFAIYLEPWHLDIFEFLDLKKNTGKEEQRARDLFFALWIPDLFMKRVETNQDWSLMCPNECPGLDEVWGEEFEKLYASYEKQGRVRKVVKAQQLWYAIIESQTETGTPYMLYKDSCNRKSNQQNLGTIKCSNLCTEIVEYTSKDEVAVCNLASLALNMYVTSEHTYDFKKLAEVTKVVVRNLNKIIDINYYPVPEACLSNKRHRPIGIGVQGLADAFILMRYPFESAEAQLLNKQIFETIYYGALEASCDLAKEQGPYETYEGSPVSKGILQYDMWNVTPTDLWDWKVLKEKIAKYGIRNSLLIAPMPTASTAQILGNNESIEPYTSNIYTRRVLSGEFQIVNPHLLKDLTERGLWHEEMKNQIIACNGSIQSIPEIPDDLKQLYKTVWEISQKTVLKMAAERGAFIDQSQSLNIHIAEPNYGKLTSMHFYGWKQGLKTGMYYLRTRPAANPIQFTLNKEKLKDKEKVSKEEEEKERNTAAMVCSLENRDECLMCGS
In words: RNR enzyme activity, rapid-fire mass spectrometry (RFMS) assay. It counts as biochemical. Conditions: RNR 50 nM, CDP 5 μM, ATP 1 mM, 37° C., 45 min, compounds screened up to 50 μM, read-out: RF/MS IC50. Summed up:
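Human RNR1:RNR2 (1:1, 50 nM) pre-incubated 15 min at room temperature with compound, then reacted with 5 μM CDP and 1 mM ATP, no NADPH, for 45 min at 37 °C. Stopped with 6% HCOOH; turnover read by rapid-fire mass spectrometry; Triapine and hydroxyurea as reference compounds.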
Take `CC(=O)N(C)C1CCN(S(=O)(=O)N[C@H](c2n[nH]c(=O)o2)C(C)c2c(F)ccc(C)c2C)CC1` (stereo partly drawn) [Example 63, N-(1-(N-((1S)-2-(6-fluoro-2,3-dimethylphenyl)-1-(5-oxo-4,5-dihydro-1,3,4-oxadiazol-2-yl)propyl)sulfamoyl)piperidin-4-yl)-N-methylacetamide]: the pIC50 was 5.00 to 6.00.

In the case of `Cc1ccc(F)c([C@@H](C)[C@H](NS(=O)(=O)N2CCC(Oc3ccccc3)CC2)c2n[nH]c(=O)o2)c1C` [Example 55, N-((1S,2R)-2-(6-fluoro-2,3-dimethylphenyl)-1-(5-oxo-4,5-dihydro-1,3,4-oxadiazol-2-yl)propyl)-4-phenoxypiperidine-1-sulfonamide], the pIC50 was 6.00 to 7.00.

`Cc1ccc(F)c([C@@H](C)[C@H](NS(=O)(=O)N2CCC(CCl)CC2)c2n[nH]c(=O)o2)c1C` [Example 41, 4-(chloromethyl)-N-((1S,2R)-2-(6-fluoro-2,3-dimethylphenyl)-1-(5-oxo-4,5-dihydro-1,3,4-oxadiazol-2-yl)propyl)piperidine-1-sulfonamide]: the pIC50 is 6.00 to 7.00.

As to `Cc1ccc(F)c([C@@H](C)[C@H](NS(=O)(=O)N2CCCC(C(C)O)C2)c2n[nH]c(=O)o2)c1C` (mixture of isomers) [Example 27, rac-N-((1R,2S)-2-(6-fluoro-2,3-dimethylphenyl)-1-(5-oxo-4,5-dihydro-1,3,4-oxadiazol-2-yl)propyl)-3-(1-hydroxyethyl)piperidine-1-sulfonamide], the pIC50 was 6.00 to 7.00.

For the compound `Cc1ccc(F)c([C@@H](C)[C@H](NS(=O)(=O)N2CCCC(C)(C)C2)c2n[nH]c(=O)o2)c1C` [Example 117, N-((1S,2R)-2-(6-fluoro-2,3-dimethylphenyl)-1-(5-oxo-4,5-dihydro-1,3,4-oxadiazol-2-yl)propyl)-3,3-dimethylpiperidine-1-sulfonamide], the pIC50 was 5.00 to 6.00.

For the compound `COC1CCN(S(=O)(=O)N[C@H](c2n[nH]c(=O)o2)[C@H](C)c2c(F)ccc(C)c2C)CC1` [Example 125, N-((1S,2R)-2-(6-fluoro-2,3-dimethylphenyl)-1-(5-oxo-4,5-dihydro-1,3,4-oxadiazol-2-yl)propyl)-4-methoxypiperidine-1-sulfonamide], the pIC50 was 6.00 to 7.00.

Take `Cc1ccc(F)c([C@H](C)[C@H](NS(=O)(=O)N2CCC(C(C)C)CC2)c2n[nH]c(=O)o2)c1C` [Example 39, N-((1S,2S)-2-(6-fluoro-2,3-dimethylphenyl)-1-(5-oxo-4,5-dihydro-1,3,4-oxadiazol-2-yl)propyl)-4-isopropylpiperidine-1-sulfonamide]: the pIC50 was 5.00 to 6.00.

For `Cc1ccc(F)c([C@@H](C)[C@H](NS(=O)(=O)N2CCC(Cl)(Cl)CC2)c2n[nH]c(=O)o2)c1C` [Example 97, 4,4-dichloro-N-((1S,2R)-2-(6-fluoro-2,3-dimethylphenyl)-1-(5-oxo-4,5-dihydro-1,3,4-oxadiazol-2-yl)propyl)piperidine-1-sulfonamide], the pIC50 was ≥ 7.00.

Take `Cc1ccc(F)c(C(C)[C@H](NS(=O)(=O)N2CCN(CC(F)F)CC2)c2n[nH]c(=O)o2)c1C` (stereo partly drawn) [Example 124, 4-(2,2-difluoroethyl)-N-((1S)-2-(6-fluoro-2,3-dimethylphenyl)-1-(5-oxo-4,5-dihydro-1,3,4-oxadiazol-2-yl)propyl)piperazine-1-sulfonamide]: the pIC50 was 5.00 to 6.00.

Turning to `Cc1ccc(F)c([C@H](C)[C@H](NS(=O)(=O)N2CCC(C)CC2)c2n[nH]c(=O)o2)c1C` [Example 116, N-((1S,2S)-2-(6-fluoro-2,3-dimethylphenyl)-1-(5-oxo-4,5-dihydro-1,3,4-oxadiazol-2-yl)propyl)-4-methylpiperidine-1-sulfonamide], the pIC50 was 5.00 to 6.00.

For the compound `Cc1ccc(F)c([C@H](C)[C@H](NS(=O)(=O)N2CCC(F)(F)CC2)c2n[nH]c(=O)o2)c1C` [Example 2, 4,4-difluoro-N-[(1S,2S)-2-(6-fluoro-2,3-dimethylphenyl)-1-(5-oxo-4H-1,3,4-oxadiazol-2-yl)propyl]piperidine-1-sulfonamide], the pIC50 is 4.00 to 5.00.

Take `CC(=O)N1CCN(S(=O)(=O)N[C@H](c2n[nH]c(=O)o2)C(C)c2c(F)ccc(C)c2C)CC1` (stereo partly drawn) [Example 37, 4-acetyl-N-((1S)-2-(6-fluoro-2,3-dimethylphenyl)-1-(5-oxo-4,5-dihydro-1,3,4-oxadiazol-2-yl)propyl)piperazine-1-sulfonamide]: the pIC50 was 5.00 to 6.00.

With `Cc1ccc(F)c([C@@H](C)[C@H](NS(=O)(=O)N2CCC(c3nncn3C)CC2)c2n[nH]c(=O)o2)c1C` [Example 52, N-((1S,2R)-2-(6-fluoro-2,3-dimethylphenyl)-1-(5-oxo-4,5-dihydro-1,3,4-oxadiazol-2-yl)propyl)-4-(4-methyl-4H-1,2,4-triazol-3-yl)piperidine-1-sulfonamide], the pIC50 was 4.00 to 5.00.

In the case of `Cc1ccc(F)c(C(C)[C@H](NS(=O)(=O)N2CCC(Cl)(C#N)CC2)c2n[nH]c(=O)o2)c1C` (stereo partly drawn) [Example 101, 4-chloro-4-cyano-N-((1S)-2-(6-fluoro-2,3-dimethylphenyl)-1-(5-oxo-4,5-dihydro-1,3,4-oxadiazol-2-yl)propyl)piperidine-1-sulfonamide], the pIC50 is 6.00 to 7.00.

On to `Cc1ccc(F)c(C(C)[C@H](NS(=O)(=O)N2CCC(C3CC3)CC2)c2n[nH]c(=O)o2)c1C` (stereo partly drawn) [Example 49, 4-cyclopropyl-N-((1S)-2-(6-fluoro-2,3-dimethylphenyl)-1-(5-oxo-4,5-dihydro-1,3,4-oxadiazol-2-yl)propyl)piperidine-1-sulfonamide], for which the pIC50 was 5.00 to 6.00.

Regarding `Cc1ccc(F)c(C(C)[C@H](NS(=O)(=O)N2CCC(Cl)(Cl)C(C)C2)c2n[nH]c(=O)o2)c1C` (stereo partly drawn) [Example 99, 4,4-dichloro-N-((1S)-2-(6-fluoro-2,3-dimethylphenyl)-1-(5-oxo-4,5-dihydro-1,3,4-oxadiazol-2-yl)propyl)-3-methylpiperidine-1-sulfonamide], the pIC50 is 6.00 to 7.00.

(Values after patent US20240425490A1, “SULFAMIDE RIBONUCLEOTIDE REDUCTASE (RNR) INHIBITORS AND USES THEREOF” (Boundless Bio, Inc., priority 2021, published 2024).)
